Assay [1] deals with B16 melanoma cells. The assay can be described thus: B16 melanoma lung metastasis model with glycolipid-loaded BMDC. It is filed as in vivo, mice. As to conditions: 10,000 glycolipid pulsed BMDC. The procedure: The murine iNKT hybridoma N38-2C12 (Vα14Vβ8.1/8.2b) was provided by Brown University, Providence, Rhode Island, USA). Cells were cultured in DMEM Sigma) supplemented with 10% fetal calf serum (Invitrogen), 1% glutamine (Sigma), 1% penicillin streptomycin (Sigma), and 2-mercapto-ethanol (Sigma) (hereinafter called cDMEM). B16 melanoma cells were cultured in advanced RPMI (Sigma) supplemented with 10% fetal calf serum (Invitrogen), 1% glutamine (Sigma) and 1% penicillin streptomycin (Sigma). They were harvested using cell dissociation buffer, which was washed away twice first using the medium and second with PBS. 400,000 cells were intravenously (IV) injected within 30 minutes after harvest into the tail vein.
In order to determine if the new glycolipids can also mimic the anti-metastatic activity of NU-α-GalCer, we examined them in the B16 lung melanoma model. […] As little as 10,000 pulsed BMDC were enough to exert this marked tumor response. To analyze if these anti-tumor results still correspond to strong cytokine responses mice were bled 16 hours after injection of 10,000 pulsed bone marrow dendritic cells. […] Strikingly, the IL-12 results were not different between the 2 doses in contrast to the IFN-γ production, which was more dose-dependent (FIG. 9). […]

Assay [2] relates to iNKT cells. Kind of assay: In vivo cytokine secretion after intravenous injection of glycolipid-pulsed BMDC. Also on record: species or system C57BL/6 mice. The method, then:
(§1) For in vivo activation of iNKT cells C57BL/6 mice were either intraperitoneally injected with 5 μg glycolipid (dissolved in PBS) or intravenously with 6·10^5 or 1·10^4 glycolipid pulsed BMDCs.
(§2) Next we examined if the glycolipid pulsed BMDC behave similarly in vivo. For cytokine analysis we bled the mice at several time points after injection. We focused on IFN-γ and IL-12 secretion.
In order to determine if the new glycolipids can also mimic the anti-metastatic activity of NU-α-GalCer, we examined them in the B16 lung melanoma model. […] As little as 10,000 pulsed BMDC were enough to exert this marked tumor response. To analyze if these anti-tumor results still correspond to strong cytokine responses mice were bled 16 hours after injection of 10,000 pulsed bone marrow dendritic cells. […] Strikingly, the IL-12 results were not different between the 2 doses in contrast to the IFN-γ production, which was more dose-dependent (FIG. 9). This might indicate that other cytokines such as IL-18, which is also necessary for the induction of IFN-γ by NK cells might play an additional role in iNKT cell dependent Th1 polarization.

Assay [3] concerns iNKT cells. Kind of assay: In vivo activation of iNKT cells: serum cytokines after intraperitoneal glycolipid injection. Also on record: species or system C57BL/6 mice. As to conditions: 16 hours after intraperitoneal injection of 5 μg glycolipid. The method, then:
Glycolipids from this invention were synthesized according to the procedure of example 1. α-C-GalCer was kindly provided by Aaron Diamond AIDS Research Center (New York, USA) and the NIH Tetramer Core Facility. Lyophilized glycolipids were dissolved in pure dimethylsulfoxide (DMSO) (Sigma) at a 10 mg/mL concentration and stored at −20° C. Glycolipids were solubilized by adding phosphate buffer saline (PBS) (Invitrogen) or a standard vehicle (96 mg/mL sucrose, 10 mg/mL sodium deoxycholate, 0,05% Tween 20), warming to 80° C. for 20 minutes, and then sonication for 10 minutes.
as §1
In order to assess the antigenicity of the carbamate-containing galactopyranosyl compounds of example 1 and their ability to induce Th1-skewing, mice were bled at 16 hours after intraperitoneal glycolipid exposure because this is known to afford peak levels of IFN-y, the hallmark Th1 cytokine. […] IFN-y production in response to glycolipid dependent iNKT cell activation is known to be dependent on IL-12^10-12, which was therefore analyzed.

For assay [4], the system named is human iNKT cells. The assay can be described thus: Cytokine secretion in cultures of purified human iNKT cells. It is filed as cell-based. To be noted: glycolipid 100 ng/ml pulsed PBMCs, 24 hours. The method, then: Human iNKT cells from healthy adult individuals were sorted and expanded. PBMCs were isolated by means of density centrifugation, incubated overnight in the presence of indicated glycolipids (100 ng/ml), washed and irradiated (40 Gy). Subsequently, 5×10^4 iNKT cells were stimulated with 10^5 glycolipid pulsed autologous PBMCs in RPMI 1640 media supplemented with 10% human AB serum (Lonza), 1% sodium pyruvate, 1% nonessential amino acids and 1% penicillin/streptomycin (all from Invitrogen). Supernatants were collected after 24 hours of culture and cytokine levels were determined by means of cytometric Bead Arrays (CBA) following the manufacturer's instructions (BD).
as §2

The target in assay [5] is T1, TCR / mCD1d-glycolipid complex (Mus musculus, UniProt P11609).
T1 sequence (P11609 19-297): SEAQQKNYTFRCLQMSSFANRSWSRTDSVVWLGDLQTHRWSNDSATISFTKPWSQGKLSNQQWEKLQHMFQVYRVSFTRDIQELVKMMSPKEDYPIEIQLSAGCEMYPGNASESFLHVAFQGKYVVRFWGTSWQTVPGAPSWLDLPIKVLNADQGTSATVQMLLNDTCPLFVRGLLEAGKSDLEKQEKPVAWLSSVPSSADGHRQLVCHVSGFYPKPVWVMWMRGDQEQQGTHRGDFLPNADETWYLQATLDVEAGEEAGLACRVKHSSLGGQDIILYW
T1 sequence (P01887 21-119 partner): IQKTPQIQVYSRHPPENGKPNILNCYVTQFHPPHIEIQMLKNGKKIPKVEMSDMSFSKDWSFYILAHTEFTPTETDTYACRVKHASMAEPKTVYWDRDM
The assay can be described thus: Surface plasmon resonance: TCR binding to mCD1d-glycolipid complexes. As to conditions: SPR, 25° C., Langmuir 1:1 model; read-out: KD. The procedure:
SPR studies were conducted using a Biacore 3000 (Biacore). Glycolipids were dissolved at 1 mg/ml in DMSO and before loading were diluted to 0.25 mg/ml with vehicle solution (50 mM Tris-HCl pH 7.0, 4.8 mg/ml sucrose, 0.5 mg/ml deoxycholate and 0.022% Tween-20), heated for 20 minutes at 80° C. After cooling 1 μg of each lipid was incubated with 10 μg enzymatically biotinylated mCD1d overnight at room temperature. In one embodiment, 400-600 response units (RU) of mCD1d-glycolipid complexes were immobilized onto a CA capture chip (Biacore). A reference surface was generated in another flow channel with unloaded mCD1d immobilized at RU of 500. During the association phase, a series of increasing concentrations of TCR (in 10 mM HEPES, 150 mM NaCl, 3.0 mM EDTA, pH 7.4) in duplicate were injected for 80 seconds and the dissociation phase (running buffer only) was monitored over 45 minutes. Experiments were carried out at 25° C. with a flow rate of 30 μl/min and performed at least two to three times, each time with a different batch of TCR preparation. Kinetic parameters were calculated after subtracting the response to mCD1d molecules in the reference channel, using a simple Langmuir 1:1 model in the BIA evaluation software version 4.1. One representative sensorgram for each lipid is shown. […]

The test system of assay [6] is spleen DCs (CD11c CD11b double positive). Kind of assay: Co-stimulatory molecule expression on spleen dendritic cells after glycolipid-pulsed BMDC. It is filed as in vivo, C57/BL6 mice. To be noted: 600000 glycolipid-pulsed BMDC. An excerpt: Spleen cells were isolated. Lymphocytes were isolated at the interface and washed, depleted with an anti-CD3 kit (Miltenyi Biotec, Sunnyvale, […]) and re-suspended in a staining buffer containing saturating amount of anti-Fcy Receptor type II/type III monoclonal antibodies (Miltenyi). Hereafter cells were stained with fluorochrome-conjugated mAbs (all from Bioscience) directed against the described antigens. Live cells (exclusion with DAPI) were acquired on a FACSCanto (BD) flow cytometer and analyzed using FlowJo (Tree Star) software.
Expression of co-stimulatory markers at the cell surface is linked to cytokine polarization because this determines the degree of activation of by-stander cells such as NK cells, whose IFN-y production is responsible for Th1 polarized cytokine profile. For α-C-GalCer, it has been shown that expression of CD40 is essential for IL-12 and subsequent NK cell dependent IFN-γ production. In contrast, OCH, a Th2 polarizing antigen, is not able to induce CD40 expression at the surface of DCs. Additionally OX40L up-regulation by dendritic cells (DC) has been found important for α-GalCer dependent tumour killing.
Glycolipid stimulation of iNKT cells leads to CD28 expression, and induces CD80 and CD86 expression at the dendritic cell surface, which is required for induction of IL-12 by dendritic cells. […]

The mark [7] stands for this setting: 16 hours after injection of 10,000 pulsed BMDC.

The structures appear in SMILES notation.

`CCCCCCCCCCCCCCCCCCCCCCCCCC(=O)NC(COC1OC(COC(=O)Nc2ccncc2)C(O)C(O)C1O)C(O)C(O)CCCCCCCCCCCCCC` [PyrC-α-GalCer, (2S,3S,4R)-1-O-(6-O-(4pyridinylcarbamoyl)-α-D-galactopyranosyl)-2-hexa-cosylamino-octadecane-1,3,4-triol]: the “prevention of tumor metastasis (lung nodules)” value in assay [1] is given as “still better in preventing tumor metastasis”. In addition, in assay [2] (setting [7]), the IFN-γ production entry was “significantly higher” and the IL-12 production entry is on record as “significantly higher”. Also, the “IL-12 secretion after 24 hours” value in assay [2] (24 hours after injection of glycolipid pulsed BMDC) is given as “markedly higher than for NU-α-GalCer”. Moreover, the IL-12 secretion result in assay [2] (after injection of glycolipid pulsed BMDC) is reported as “very high”. In addition, in assay [2] (several time points after injection of glycolipid pulsed BMDC), the “IFN-γ level time course” value is “increased up to 24 hours after injection”. Also, the IL-12 production result in assay [3] was “significantly higher IL-12 levels than NU-α-GalCer”. Also, the “Th1-biased cytokine secretion (more IFN-γ and IL-12 and less IL-4 and IL-13 compared to α-GalCer)” value in assay [4] is given as “able to induce Th1-biased cytokine secretion”. For the same compound, in assay [5], the Kd was 33 nM. Also, in assay [6], the “CD40 up-regulation on spleen DCs” value is reported as “induces early CD40 up-regulation”.

Values taken from patent publication US9321796B2, “Galactopyranosyl derivatives useful as medicaments” (Universiteit Gent, priority 2012, dated 2016).
